From patent publication US20180000085A1, “USE OF PICOLINAMIDE COMPOUNDS WITH FUNGICIDAL ACTIVITY” (DOW AGROSCIENCES LLC, priority 2014, published 2018)

What was measured:
Zymoseptoria tritici = test: Leaf blotch of wheat (SEPTTR) disease control on wheat seedlings; type: in vivo; design: key to SEPTTR 1DP, HV activity at 100 ppm (% control rating) / SEPTTR 3DC, HV activity at 100 ppm (% control rating) / SEPTTR disease control, 1DP / SEPTTR disease control, 3DC / SEPTTR 1DP disease control rating, HV activity / SEPTTR 3DC disease control rating, HV activity / SEPTTR 3DC, LV activity at 125.1 g/H (% Control rating) / SEPTTR 1DP, LV activity at 125.1 g/H (% Control rating) / SEPTTR 1DP disease control rating, LV activity at 125.1 g/H / SEPTTR 3DC disease control rating, LV activity at 125.1 g/H / SEPTTR 3DC disease control rating, HV activity at 100 ppm / SEPTTR 1DP disease control rating, HV activity at 100 ppm / HV activity at 100 ppm SEPTTR 3DC (disease control rating) / HV activity at 100 ppm SEPTTR 1DP (disease control rating) / LV activity at 125.1 g/H SEPTTR 1DP (disease control rating) / LV activity at 125.1 g/H SEPTTR 3DC (disease control rating): A: > 80; B: ≤ 80; C: Not Tested; D: No Activity Observed in the Reported Assay; details: for SEPTTR 1DP disease control rating, HV activity / SEPTTR 3DC disease control rating, HV activity: HV application at 100 ppm; for SEPTTR 1DP, LV activity at 125.1 g/H (% Control rating) / SEPTTR 3DC, LV activity at 125.1 g/H (% Control rating) / LV activity at 125.1 g/H SEPTTR 1DP (disease control rating) / LV activity at 125.1 g/H SEPTTR 3DC (disease control rating): low volume application
Puccinia triticina = test: Wheat brown rust (PUCCRT) disease control on wheat seedlings; type: in vivo; design: key to PUCCRT 3DC, HV activity at 100 ppm (% control rating) / PUCCRT disease control, 3DC / PUCCRT 1DP disease control rating, HV activity / PUCCRT 3DC disease control rating, HV activity / PUCCRT 3DC, LV activity at 125.1 g/H (% Control rating) / PUCCRT 1DP, LV activity at 125.1 g/H (% Control rating) / PUCCRT 3DC disease control rating, LV activity at 125.1 g/H / PUCCRT 1DP disease control rating, LV activity at 125.1 g/H / PUCCRT 3DC disease control rating, HV activity at 100 ppm / PUCCRT 1DP disease control rating, HV activity at 100 ppm / HV activity at 100 ppm PUCCRT 3DC (disease control rating) / LV activity at 125.1 g/H PUCCRT 1DP (disease control rating) / LV activity at 125.1 g/H PUCCRT 3DC (disease control rating): A: > 80; B: ≤ 80; C: Not Tested; D: No Activity Observed in the Reported Assay; details: for PUCCRT 1DP disease control rating, HV activity / PUCCRT 3DC disease control rating, HV activity: HV application at 100 ppm; for PUCCRT 1DP, LV activity at 125.1 g/H (% Control rating) / PUCCRT 3DC, LV activity at 125.1 g/H (% Control rating) / LV activity at 125.1 g/H PUCCRT 1DP (disease control rating) / LV activity at 125.1 g/H PUCCRT 3DC (disease control rating): low volume application
[1] = 1 Day Protectant, wheat leaf blotch
[2] = 3 Day Curative, wheat leaf blotch
[3] = 1 Day Protectant, wheat brown rust
[4] = 3 Day Curative, wheat brown rust
[5] = high volume application, 100 ppm, 1 day protectant
[6] = high volume application, 100 ppm, 3 day curative

CCCC(Oc1ccccc1)C(C)OC(=O)C(C)NC(=O)c1nccc(OC)c1O (stereo not shown) [Cmpd 438]
SEPTTR 1DP disease control rating, HV activity (Zymoseptoria tritici; [1]): A (> 80) | SEPTTR 3DC disease control rating, HV activity (Zymoseptoria tritici; [2]): A (> 80) | PUCCRT 1DP disease control rating, HV activity (Puccinia triticina; [3]): A (> 80) | PUCCRT 3DC disease control rating, HV activity (Puccinia triticina; [4]): A (> 80)

COc1ccnc(C(=O)N[C@@H](C)C(=O)O[C@@H](C)[C@@H](CC(C)C)OCC(C)C)c1O [Cmpd 1044]
HV activity at 100 ppm SEPTTR 1DP (disease control rating) (Zymoseptoria tritici; HV application, 100 ppm, 1 Day Protectant, wheat leaf blotch): B (≤ 80) | HV activity at 100 ppm SEPTTR 3DC (disease control rating) (Zymoseptoria tritici; HV application, 100 ppm, 3 Day Curative, wheat leaf blotch): A (> 80) | HV activity at 100 ppm PUCCRT 1DP (disease control rating) (Puccinia triticina; HV application, 100 ppm, 1 Day Protectant, wheat brown rust): A (> 80) | HV activity at 100 ppm PUCCRT 3DC (disease control rating) (Puccinia triticina; HV application, 100 ppm, 3 Day Curative, wheat brown rust): A (> 80)

CCCOCC(C)OC(=O)C(C)NC(=O)c1nccc(OC)c1OCOC(C)=O (stereo not shown) [Cmpd 522]
SEPTTR 1DP, LV activity at 125.1 g/H (% Control rating) (Zymoseptoria tritici; 1 Day Protectant): B (≤ 80) | SEPTTR 3DC, LV activity at 125.1 g/H (% Control rating) (Zymoseptoria tritici; 3 Day Curative): B (≤ 80) | PUCCRT 1DP, LV activity at 125.1 g/H (% Control rating) (Puccinia triticina; 1 Day Protectant): D | PUCCRT 3DC, LV activity at 125.1 g/H (% Control rating) (Puccinia triticina; 3 Day Curative): D

COc1ccnc(C(=O)NC(C)C(=O)OC(C)COCC2CC2)c1OC(C)=O (stereo not shown) [Cmpd 529]
SEPTTR 1DP, LV activity at 125.1 g/H (% Control rating) (Zymoseptoria tritici; 1 Day Protectant): B (≤ 80) | SEPTTR 3DC, LV activity at 125.1 g/H (% Control rating) (Zymoseptoria tritici; 3 Day Curative): B (≤ 80) | PUCCRT 1DP, LV activity at 125.1 g/H (% Control rating) (Puccinia triticina; 1 Day Protectant): D | PUCCRT 3DC, LV activity at 125.1 g/H (% Control rating) (Puccinia triticina; 3 Day Curative): D

COc1ccnc(C(=O)NC(C)C(=O)OC(C)C(OC(=O)C(C)C)C(C)C)c1O (stereo not shown) [Cmpd 399]
SEPTTR 1DP disease control rating, HV activity (Zymoseptoria tritici; [1]): B (≤ 80) | SEPTTR 3DC disease control rating, HV activity (Zymoseptoria tritici; [2]): D | PUCCRT 1DP disease control rating, HV activity (Puccinia triticina; [3]): B (≤ 80) | PUCCRT 3DC disease control rating, HV activity (Puccinia triticina; [4]): D

COc1ccnc(C(=O)NC(C)C(=O)OC(C)C(OCC2CC2)c2ccccc2)c1O (stereo not shown) [Cmpd 825]
SEPTTR 1DP disease control rating, HV activity at 100 ppm (Zymoseptoria tritici; [5]): B (≤ 80) | SEPTTR 3DC disease control rating, HV activity at 100 ppm (Zymoseptoria tritici; [6]): B (≤ 80) | PUCCRT 1DP disease control rating, HV activity at 100 ppm (Puccinia triticina; [5]): A (> 80) | PUCCRT 3DC disease control rating, HV activity at 100 ppm (Puccinia triticina; [6]): A (> 80)

COc1ccnc(C(=O)N[C@@H](C)C(=O)O[C@@H](C)[C@@H](CC(C)C)Oc2cc(F)ccc2F)c1OC(C)=O [Cmpd 1114]
LV activity at 125.1 g/H SEPTTR 1DP (disease control rating) (Zymoseptoria tritici; [1]): A (> 80) | LV activity at 125.1 g/H SEPTTR 3DC (disease control rating) (Zymoseptoria tritici; [2]): A (> 80) | LV activity at 125.1 g/H PUCCRT 1DP (disease control rating) (Puccinia triticina; [3]): A (> 80) | LV activity at 125.1 g/H PUCCRT 3DC (disease control rating) (Puccinia triticina; [4]): A (> 80)

COc1ccnc(C(=O)N[C@H](C(=O)O[C@@H](C)[C@H](Oc2cccc(Cl)c2)C(C)C)C(C)C)c1OCOC(C)=O [Cmpd 564]
SEPTTR 1DP, LV activity at 125.1 g/H (% Control rating) (Zymoseptoria tritici; 1 Day Protectant): A (> 80) | SEPTTR 3DC, LV activity at 125.1 g/H (% Control rating) (Zymoseptoria tritici; 3 Day Curative): A (> 80) | PUCCRT 1DP, LV activity at 125.1 g/H (% Control rating) (Puccinia triticina; 1 Day Protectant): A (> 80) | PUCCRT 3DC, LV activity at 125.1 g/H (% Control rating) (Puccinia triticina; 3 Day Curative): A (> 80)

CCCC(NC(=O)c1nccc(OC)c1OCOC(C)=O)C(=O)OC(C)C(CCc1ccccc1)OCC(C)C (stereo not shown) [Cmpd 444]
SEPTTR 1DP disease control rating, HV activity (Zymoseptoria tritici; [1]): A (> 80) | SEPTTR 3DC disease control rating, HV activity (Zymoseptoria tritici; [2]): A (> 80) | PUCCRT 1DP disease control rating, HV activity (Puccinia triticina; [3]): A (> 80) | PUCCRT 3DC disease control rating, HV activity (Puccinia triticina; [4]): B (≤ 80)

COc1ccnc(C(=O)NC(C(=O)OC(C)C(Oc2ccccc2)C(C)C)C(F)(F)F)c1OCOC(C)=O (mixture of isomers) [Cmpd 1073]
LV activity at 125.1 g/H SEPTTR 1DP (disease control rating) (Zymoseptoria tritici; [1]): B (≤ 80) | LV activity at 125.1 g/H SEPTTR 3DC (disease control rating) (Zymoseptoria tritici; [2]): B (≤ 80) | LV activity at 125.1 g/H PUCCRT 1DP (disease control rating) (Puccinia triticina; [3]): A (> 80) | LV activity at 125.1 g/H PUCCRT 3DC (disease control rating) (Puccinia triticina; [4]): A (> 80)
